The values that follow come from US6989383B1, “Method of treating cancer” (Sloan-Kettering Institute For Cancer Research, priority 1998, dated 2006).

The subject of data set [1] is MCF-7 cells. The experiment in a line: In vitro cell cycle assay (DNA content by flow cytometry). It is filed as cell-based, human. As to conditions: 24 hour treatment with various concentrations of paclitaxel in presence or absence of 1 μM Compound A. As to the method:
FIGS. 4 and 4A-4L: Effect of a Farnesyl-protein Transferase Inhibitor in combination with paclitaxel on the cell cycle of MCF-7 Cells: MCF-7 cells were preincubated for one day, followed by a 24 hour treatment with various concentrations of paclitaxel in the presence or absence of 1 μM Compound A. The DNA contents of the cells were then assessed according to the protocol described in “In vitro cell cycle assay.” The cell population having various DNA quantities was then determined and analyzed graphically. […] FIGS. 4A-4L show the individual histograms in greater detail. FIGS. 4A-4F show the histograms of the treatment in the absence of Compound A and with increasing concentrations of paclitaxel (the left column of FIG. 4). FIGS. 4G-4L show the histograms of the treatment in the presence of 1 μM of Compound A and with increasing concentrations of paclitaxel (the right column of FIG. 4).
Cancer cells (MCF-7, MDA468 or DU-145) are seeded in a 10 cm dish at 1,000,000 cells per dish. After one day in growth media, the cells are exposed to various concentrations of a antineoplastic agent along with vehicle (PBS) or 1 μM FTI in the vehicle. After 24 hours of exposure to the combination or antineoplastic agent, the cells are trypsinized and stained with ethidium bromide. The stained nucleii are analyzed by flow cytometry for evaluation of the DNA content.
A general note: In flow cytometry, cells or beads pass a laser one at a time.

Data set [2] concerns MCF-7 cells. The experiment in a line: Mitotic index by bis-benzimide staining and fluorescence microscopy. It is filed as cell-based, human. The settings on record: paclitaxel/Compound A treatments, manual counting of 1000 cells per group. As to the method: FIG. 5: Specific Effect of a Farnesyl-protein Transferase Inhibitor in combination with pactitaxel on the cell cycle of MCF-7 Cells: The cells which contained the doubled DNA content from the assay described above for FIGS. 4 and 4A-4L were analyzed to determine which particular cell cycle phase was affected by the addition of Compound A to the paclitaxel treatment. Thus, aliquots of the cell populations for the various paclitaxel/Compound A treatments were. fixed in 3% paraformaldehyde for 10 minutes, washed in PBS and stained in 24 μg/ml bis-benzimide in PBS. Mitotic cells were distinguished from interphase cells under fluorescence microscopy by characteristic chromatin condensation and mitotic indices were obtained by manual counting of 1000 cells in each experimental treatment group.

The conditions of data set [3]: TFA salt.

As for `CCC(C)[C@@H](CO[C@@H](Cc1ccccc1)C(=O)N[C@@H](CCS(C)(=O)=O)C(=O)OC(C)C)NC[C@@H](N)CS` (stereo partly drawn) [Compound A, 2(S)-[2(S)-[2(R)-Amino-3-mercapto]-propylamino-3(S)-methyl)-pentyloxy-3-phenylpropionyl-methionine sulfone isopropyl ester], in the data set on MCF-7 cells [1], the “effect on paclitaxel-induced G2/M phase arrest” value is recorded as “increases the molar potency with which paclitaxel causes G2/M phase arrest”. In addition, in the data set with MCF-7 cells [2], the “cell cycle phase affected by addition of Compound A to paclitaxel treatment (mitotic indices)” value is reported as “enhancement in blockage at the G2/M phase of the cell cycle is largely due to an effect on the M-phase”. As for `CC[C@H](C)[C@@H](CO[C@@H](Cc1ccccc1)C(=O)NC1CCOC1=O)NC[C@@H](N)CS` (stereo partly drawn) [Compound 5-1, 2(S)-[2(S)-[2(R)-Amino-3-mercapto]-propylamino-3(S)-methyl]pentyloxy-3-phenylpropionyl-homoserine lactone], in data set [3], the “stability in solution exposed to air” value was “prone to disulphide formation if left in solution and exposed to air”.
